Measured values reported in ChEMBL document CHEMBL3994649, “Piceatannol, a natural trans-stilbene compound, inhibits human glyoxalase I” (Bioorg Med Chem Lett, 2017).
Calls of active or inactive are those of the source. No cut-off for these calls is given here.

How the values were obtained:
NCI-H522 [1] = experiment: Antiproliferative activity against human NCI-H522 cells after 48 hrs by WST8 assay; format: functional, cell-based; settings: NCI-H522, 48 h
Lactoylglutathione lyase [2] = molecular target: T1, Lactoylglutathione lyase (Homo sapiens, UniProt Q04760); experiment: Potency index, ratio of baicalein IC50 to compound IC50 for human N-terminal His6-tagged GLO1 expressed in baculovirus infected sf21 cells
Target sequence in this assay (Q04760 2-184 limits assumed): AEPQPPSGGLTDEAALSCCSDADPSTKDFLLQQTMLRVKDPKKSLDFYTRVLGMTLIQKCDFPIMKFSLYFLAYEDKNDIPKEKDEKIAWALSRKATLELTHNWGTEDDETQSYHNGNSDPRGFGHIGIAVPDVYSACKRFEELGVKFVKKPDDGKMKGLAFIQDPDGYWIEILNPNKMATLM

NCI-H522 [3] = experiment: Antiproliferative activity against human NCI-H522 cells after 24 hrs by WST8 assay; format: functional, cell-based; settings: NCI-H522, 24 h
NCI-H460 = experiment: Antiproliferative activity against human NCI-H460 cells at 50 uM after 24 to 72 hrs by WST8 assay; format: functional, cell-based
Lactoylglutathione lyase [4] = molecular target: T1, Lactoylglutathione lyase; experiment: Inhibition of human N-terminal His6-tagged GLO1 expressed in baculovirus infected sf21 cells assessed as reduction in S-D-lactoylglutathione formation measured for 5 mins in presence of glutathione by spectrophotometric method
Target sequence in this assay (Q04760 whole entry): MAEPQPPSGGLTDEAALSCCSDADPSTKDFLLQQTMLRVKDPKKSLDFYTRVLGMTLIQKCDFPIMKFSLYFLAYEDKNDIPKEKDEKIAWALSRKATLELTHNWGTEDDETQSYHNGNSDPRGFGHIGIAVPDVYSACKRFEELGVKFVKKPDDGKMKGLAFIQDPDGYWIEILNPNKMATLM

Lactoylglutathione lyase [5] = molecular target: T1, Lactoylglutathione lyase; experiment: Inhibition of human N-terminal His6-tagged GLO1 expressed in baculovirus infected sf21 cells assessed as reduction in S-D-lactoylglutathione formation at 100 uM measured for 5 mins in presence of glutathione by spectrophotometric method
Target sequence in this assay (Q04760 2-184 limits assumed): as the sequence (Q04760 2-184 limits assumed) above

NCI-H522 [6] = experiment: Antiproliferative activity against human NCI-H522 cells after 72 hrs by WST8 assay; format: functional, cell-based; settings: NCI-H522, 72 h
NCI-H522 [7] = experiment: Antiproliferative activity against human NCI-H522 cells overexpressing human GLO1 at 10 to 30 uM after 72 hrs by WST8 assay; format: functional, cell-based

Oc1cc(O)cc(/C=C/c2ccc(O)c(O)c2)c1 [PICEATANNOL] was tested, and the EC50 (NCI-H522 [1]) was 23 µM, the Ratio IC50 (Lactoylglutathione lyase [2]) was 14 and the EC50 (NCI-H522 [3]) was 53 µM. The Activity (NCI-H460) was “inactive”, the IC50 (Lactoylglutathione lyase [4]) was 0.76 µM and the inhibition (Lactoylglutathione lyase [5]) was “Active”. For the same compound, the EC50 (NCI-H522 [6]) was 17 µM and the Activity (NCI-H522 [7]) was “inactive”.
In the case of COc1cc(/C=C/c2ccc(OC)c(OC)c2)cc(OC)c1, the inhibition (Lactoylglutathione lyase [5]) is reported as “Active”.
